Measurements published in ChEMBL document CHEMBL2029246, “Identification of benzoxazole analogs as novel, S1P(3) sparing S1P(1) agonists” (Bioorg Med Chem Lett, 2012).
Activity calls are given as the source filed them. The rule behind the calls is not given here.

What was measured:
[1] = molecular target: Sphingosine 1-phosphate receptor 3 (Homo sapiens, UniProt Q99500); test: Agonist activity at human SIP3 receptor assessed as calcium mobilization by GeneBLAzer assay; type: functional
[2] = molecular target: Sphingosine 1-phosphate receptor 1 (Homo sapiens, UniProt P21453); test: Agonist activity at SIP1 receptor by tango assay; type: functional
[3] = organism: Mus musculus; test: Lymphopenic activity in C57BL/6 mouse assessed as reduction in blood lymphocytes after 4 to 8 weeks relative to control; type: functional, organism-based
[4] = organism: Mus musculus; test: Lymphopenic activity in C57BL/6 mouse assessed as reduction in blood lymphocytes relative to control; type: functional; parameters: scale not given: the % may be the effect or the level left
[5] = Clearance in iv dosed mouse; type: ADME, organism-based; details: in vivo
[6] = tested on: Mus musculus; test: Lymphopenia activity in mouse assessed as reduction in blood lymphocytes at 1 mg/kg after 4 hrs relative to control; type: functional; parameters: scale not given: the % may be the effect or the level left
[7] = Half life in mouse at 2 mg/kg, po; type: ADME, organism-based; parameters: dose 2 mg/kg, route oral; details: in vivo
[8] = Ratio of drug level in brain to blood in iv dosed mouse after 1 hr; type: ADME, organism-based; details: read-out: BBR
[9] = Volume of distribution in iv dosed mouse; type: ADME, organism-based; details: in vivo
[10] = AUC (0 to 24 hrs) in mouse at 2 mg/kg, po; type: ADME, organism-based; parameters: time < 24 hr, dose 2 mg/kg, route oral; details: plasma
[11] = Ratio of drug level in brain to blood in iv dosed mouse after 4 hrs; type: ADME, organism-based; details: read-out: BBR
[12] = Cmax in mouse at 2 mg/kg, po; type: ADME, organism-based; parameters: dose 2 mg/kg, route oral; details: in vivo
[13] = tested on: Mus musculus; test: Lymphopenic activity in mouse assessed as reduction in blood lymphocytes at 1 mg/kg after 24 hrs relative to control; type: functional, organism-based; parameters: dose 1 mg/kg
[14] = Oral bioavailability in mouse at 2 mg/kg; type: ADME, organism-based; details: in vivo
[15] = organism: Homo sapiens; test: Selectivity ratio of EC50 for SIP1 receptor to EC50 for human SIP3 receptor

Chain of Sphingosine 1-phosphate receptor 1 (P21453 whole entry): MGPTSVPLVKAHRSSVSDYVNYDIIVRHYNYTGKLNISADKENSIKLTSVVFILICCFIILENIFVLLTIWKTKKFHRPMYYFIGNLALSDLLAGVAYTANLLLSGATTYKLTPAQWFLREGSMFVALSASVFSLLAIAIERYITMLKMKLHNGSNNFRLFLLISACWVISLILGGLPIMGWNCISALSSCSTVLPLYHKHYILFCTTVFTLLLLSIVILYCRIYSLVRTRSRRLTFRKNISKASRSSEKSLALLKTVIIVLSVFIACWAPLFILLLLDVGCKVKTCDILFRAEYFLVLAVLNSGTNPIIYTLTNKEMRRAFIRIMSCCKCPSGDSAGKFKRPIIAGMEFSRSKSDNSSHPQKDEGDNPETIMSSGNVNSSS
Chain of Sphingosine 1-phosphate receptor 3 (Q99500 whole entry): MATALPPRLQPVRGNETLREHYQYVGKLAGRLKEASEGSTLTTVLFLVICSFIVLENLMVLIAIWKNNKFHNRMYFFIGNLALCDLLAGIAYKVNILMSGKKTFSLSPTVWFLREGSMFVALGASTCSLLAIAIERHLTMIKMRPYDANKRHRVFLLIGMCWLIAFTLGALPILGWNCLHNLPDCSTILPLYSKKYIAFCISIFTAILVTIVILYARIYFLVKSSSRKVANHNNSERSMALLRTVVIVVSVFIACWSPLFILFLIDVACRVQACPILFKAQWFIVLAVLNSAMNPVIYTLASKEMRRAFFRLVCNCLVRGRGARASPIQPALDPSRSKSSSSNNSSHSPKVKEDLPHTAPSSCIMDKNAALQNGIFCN

Row | SMILES | EC50 [1] [nM] | EC50 [2] [nM] | also measured
1 | O=C(O)CCCCCc1ccn2cc(-c3ccc(-c4ccccc4)c(C(F)(F)F)c3)nc2c1 | > 10000 | 398 | –
2 | O=C(O)CCCCCc1ccn2nc(-c3ccc(-c4ccccc4)c(C(F)(F)F)c3)nc2c1 | > 10000 | 126 | –
3 | CC(C)Oc1ccc(-c2nc3cc(CCCCCC(=O)O)cnc3o2)cc1C(F)(F)F | > 10000 | 20 | –
4 | O=C(O)CCCCCc1ccc2[nH]c(-c3ccc(-c4ccccc4)c(C(F)(F)F)c3)cc2c1 | > 10000 | 126 | –
5 | O=C(O)C1CN(CCc2ccc3oc(-c4ccc(-c5ccccc5)c(C(F)(F)F)c4)nc3c2)C1 | 794 | 0.398 | –
6 | O=C(O)CCCCCc1cnc2oc(-c3ccc(-c4ccccc4)c(C(F)(F)F)c3)nc2c1 | > 10000 | 0.316 | –
7 | CC(C)Oc1ccc(-c2nc3cc(C(=O)O)cnc3o2)cc1Cl | > 10000 | > 3160 | –
8 | CC(C)Oc1ccc(-c2nc3cc(CCCCCC(=O)O)cnc3o2)cc1Cl | > 10000 | 158 | –
9 | O=C(O)CN1CCC(c2ccc3oc(-c4ccc(-c5ccccc5)c(C(F)(F)F)c4)nc3c2)CC1 | 2000 | 1 | –
10 | O=C(O)CCCCCc1cnc2oc(-c3cc(-c4ccccc4)c(C(F)(F)F)s3)nc2c1 | > 10000 | 398 | –
11 | CC(C)Oc1ncc(-c2nc3cc(CCCCCC(=O)O)cnc3o2)cc1Cl | > 10000 | 1000 | –
12 | CC(C)Oc1ccc(-c2nc3cc(CCCCC(=O)O)cnc3o2)cc1Cl | > 10000 | 158 | –
13 | O=C(O)CN1CCN(c2ccc3oc(-c4ccc(-c5ccccc5)c(C(F)(F)F)c4)nc3c2)CC1 | 2000 | 0.398 | –
14 | CCCCCCCCc1ccc(CCC(N)(CO)CO)cc1.Cl [FINGOLIMOD HYDROCHLORIDE] | – | – | Activity [3]: inactive; Activity [4]: 20%
15 | O=C(O)C1CN(CCCc2ccc3oc(-c4ccc(-c5ccccc5)c(C(F)(F)F)c4)nc3c2)C1 | 126 | 0.1 | –
16 | O=C(O)CCCCCc1ccc2oc(-c3ccc(-c4ccccc4)c(C(F)(F)F)c3)nc2c1 | > 10000 | 0.398 | –
17 | O=C(O)C1CCN(CCc2ccc3oc(-c4ccc(-c5ccccc5)c(C(F)(F)F)c4)nc3c2)CC1 | 501 | 0.158 | –

Row | SMILES | EC50 [1] [nM] | EC50 [2] [nM] | also measured
18 | O=C(O)C1CCN(c2ccc3oc(-c4ccc(-c5ccccc5)c(C(F)(F)F)c4)nc3c2)CC1 | > 3160 | 0.631 | clearance [5]: 3.68 mL/min/kg; Activity [6]: 37%; half-life [7]: 5.4 h; Kp at 1 h [8]: 1.45; Vd [9]: 1.48 L/kg; AUC(0-t) at 24 h [10]: 10300 ng·h/mL; Kp at 4 h [11]: 3.73; Cmax [12]: 1070 ng/mL; Activity [13]: inactive; bioavailability [14]: > 100%
19 | O=C(O)C1CCN(CCCc2ccc3oc(-c4ccc(-c5ccccc5)c(C(F)(F)F)c4)nc3c2)CC1 | 501 | 0.794 | –
20 | CC(C)Oc1ccc(-c2nc(-c3cccc4c3ccn4CCC(=O)O)no2)cc1Cl | – | 0.01 | Ratio EC50 [15]: 1e+06
21 | O=C(O)CNCCCc1ccc2oc(-c3ccc(-c4ccccc4)c(C(F)(F)F)c3)nc2c1 | 251 | 0.0316 | Ratio EC50 [15]: > 1000
22 | O=C(O)C1CCCN(CCCc2ccc3oc(-c4ccc(-c5ccccc5)c(C(F)(F)F)c4)nc3c2)C1 (centres undefined) | 2000 | 0.501 | –
23 | CN(CCCc1ccc2oc(-c3ccc(-c4ccccc4)c(C(F)(F)F)c3)nc2c1)CC(=O)O | 1000 | 0.316 | –
24 | O=C(O)CCN1CCC(c2ccc3oc(-c4ccc(-c5ccccc5)c(C(F)(F)F)c4)nc3c2)CC1 | 1000 | 0.0794 | –
25 | CC(C)Oc1ccc(-c2nc3cc(CC(=O)O)cnc3o2)cc1Cl | > 10000 | > 3160 | –
26 | O=C(O)CCNCCc1ccc2oc(-c3ccc(-c4ccccc4)c(C(F)(F)F)c3)nc2c1 | 200 | 0.0316 | –
27 | CC(C)Oc1ncc(-c2nc3cc(CCCCCC(=O)O)cnc3o2)cc1C(F)(F)F | > 10000 | 6.31 | –
28 | CC(C)Oc1ccc(-c2nc(-c3cccc4c3c(Cl)cn4CCC(=O)O)no2)cc1Cl | > 10000 | 0.0251 | –
29 | CC(C)Oc1ccc(-c2nc3cc(CCC(=O)O)cnc3o2)cc1Cl | > 10000 | > 3160 | –
30 | CC(C)Oc1ccc(-c2nc3cc(CCCC(=O)O)cnc3o2)cc1Cl | > 10000 | 1000 | –
31 | O=C(O)C1CN(c2ccc3oc(-c4ccc(-c5ccccc5)c(C(F)(F)F)c4)nc3c2)C1 | 2000 | 10 | –
32 | O=C(O)CCCCCc1cnc2sc(-c3ccc(-c4ccccc4)c(C(F)(F)F)c3)nc2c1 | > 10000 | 10 | –
33 | O=C(O)CC1CCN(c2ccc3oc(-c4ccc(-c5ccccc5)c(C(F)(F)F)c4)nc3c2)CC1 | 1260 | 1.26 | –
34 | O=C(O)CCCCCc1cn2cc(-c3ccc(-c4ccccc4)c(C(F)(F)F)c3)nc2s1 | > 10000 | 63.1 | –
